pEC50, pIC50: −log10 of the molar value.
What was measured:
protein-kinase C (PKC) = assay: Glutamate-induced PKC translocation, [3H]-P(BtO)2 bond in intact primary cerebellar granule cells; assay type: cell-based, Sprague-Dawley rats; details: for pIC50: 2 h pre-incubation at 37° C., 1 μM glutamate, absence of Mg2+, read-out: PKC inhibition (ED50), glutamate-induced PKC translocation
Description: Translocation of PKC can be measured by assessment of the bond sites of 4-B-[3H]-phorbol 12,13-dibutyrate [3H]-P(Bt02) in intact cells.
(§5) Primary cultures were prepared with granule cells from 8-day-old Sprague-Dawley rats (Zivic Miller). […] The cultures were used for the experiments on the 8th and 9th days in vitro.
After 2 hours' incubation at 37° C. of the cells with or without the compounds (see above), the monolayers were washed once and the [^3 H]-P(BtO2) bond was assessed in the presence of 1 μM of glutamate and in the absence of Mg^2 +. […] Preliminary experiments have shown that balance is reached within 10 minutes, so the monolayers were incubated with [^3 H]-P(Bt0)2 for 15 minutes at 22° C. […] After incubation, the cells were washed three times with cold Locke's solution, and then suspended with 0.1M NaOH. Aliquots of the suspension were then used for protein determination (9) and liquid scintillation count. The nonspecific bond was determined in the presence of 2 μM phorbol 12-tetradecanoate 13-acetate (PTA).

[1] = Neurotoxicity of the compounds themselves in culture in the absence of glutamate; assay type: cell-based, Sprague-Dawley rats; details: rat, cerebellar granule cells; 24 hours, absence of glutamate; read-out: Neurotoxicity in 24 hours (ED50)
Description: (§1) The following experiments show studies carried out with N-dichloroacetylsphingosine, in comparison to sphingosine. In particular, their effects on PKC translocation and glutamate-induced neuronal toxicity in primary granule cell cultures were observed. Possible cytotoxic effects of the products were assessed according to their neurotoxic effects in cerebellar cells in culture, as well as hemolysis.
(§2) Primary cultures were prepared with granule cells from 8-day-old Sprague-Dawley rats (Zivic Miller). These cultures have a granule cell content of >90%, 5% of GABAergic neurons [Gallo V. et al., Proc. Natl. Acad. Sci. USA 79, 7919-7923 (1982)] and <5% of glia cells [Vaccarino F. M. et al., J. Neurosci. 7, 65-76 (1987)]. The cultures were used for the experiments on the 8th and 9th days in vitro.
(§3) On the 8th and 9th days in vitro, sphingosines and N-dichloroacetylsphingosines at various concentrations (1-100μM) were added to the cultures. In particular, monolayers of granule cells were pre-incubated with these compounds in Locke's solution (1 ml) for 2 hrs at 37° C. The sphingosine was dissolved in ethanol, stored as an equimolar complex with bovine serum albumin (BSA) with no fatty acids, and diluted directly with the Locke's solution used to preincubate the cells. The N-dichloroacetylsphingosine was dissolved in DMSO and diluted directly in Locke's solution (as noted above). Aliquots of the dilutions were dried in a flow of N2, after which Locke's solution was added until the desired concentration was reached.
(§4) Possibile cytotoxicity of the compounds themselves was calculated by assessing the toxicity in the […] cultures in the absence of glutamate. The experiments and techniques used were those described above, with the difference that glutamate was omitted. The possible hemolytic effects of the compounds were also assessed. Samples of blood were taken from 4 volunteers. Each sample was subdivided into three test tubes as follows: […]

[2] = system: cerebellar cells in culture; assay: as above; assay type: cell-based, Sprague-Dawley rats; details: compared with concentrations antagonizing PKC translocation and neuronal toxicity induced by glutamate
Description: as §1, §2, §3, §4

blood = assay: Hemolysis in blood of volunteers (cyanomethahemoglobin method); assay type: cell-based, human (volunteers); details: 45 minutes at 37° C., various concentrations, vs plasma negative control; FIGURE
[3] = system: primary granule cell cultures; assay: Protection from glutamate-induced neuronal toxicity in primary granule cell cultures; assay type: cell-based, Sprague-Dawley rats
Description: as §5
Monolayers of intact granule cells were pre-incubated with various compounds at various concentrations for 2 hours at 37° C. […] Cell survival was assessed by histochemical techniques after 24 hours. In particular, cell viability was assessed after fluorescein staining, which gives green fluorescence to vital cells and red fluorescence to nonvital ones.

PKC [4] = details: literature (Hannun, Merril, Wilson); cited from earlier work
[5] = system: glutamate high affinity recognition site; details: literature; cited from earlier work
granule cells = details: literature; cited from earlier work
PKC [6] = details: granule cells; Vaccarino et al. 1987; cited from earlier work
[3H]-P(Bt02) bond = literature; cited from earlier work

Question: Which “Inhibition of glutamate-induced PKC translocation (in words)” value (protein-kinase C (PKC)) does the source give for `CCCCCCCCCCCCC/C=C/[C@@H](O)[C@H](CO)NC(=O)C(Cl)Cl` [N-dichloroacetylsphingosine, N-DICHLOROACETYL SPHINGOSINE] here?
Answer: inhibited glutamate-induced PKC translocation

Question: And the pIC50 (protein-kinase C (PKC))?
Answer: 4.52

Question: What about the CC50 at 24 h [1] of the same compound?
Answer: > 100 µM

Question: And the “Neurotoxicity of the compound itself (in words)” value [2]?
Answer: either no toxicity at all, or toxicity at significantly higher concentrations than those able to antagonize translocation induced by glutamate (column 1) as well as the neuronal toxicity induced by glutamate

Question: And the Hemolysis (blood)?
Answer: does not cause hemolysis

Question: And the “Reduction of cell toxicity induced by glutamate (in words)” value ([3]; 50 μM glutamate)?
Answer: significantly reducing cell toxicity induced by glutamate

Question: And the pEC50 ([3]; Rattus norvegicus, 2 h pre-incubation at 37° C., 50 μM glutamate 15 min without Mg2+, survival after 24 hours, read-out: Protection from glutamate (ED50), neuronal toxicity induced by glutamate)?
Answer: 4.52

Question: With `CCCCCCCCCCCCC/C=C/[C@@H](O)[C@@H](N)CO` [Sphingosine] as the compound, how does the pIC50 (protein-kinase C (PKC)) read?
Answer: 4.70

Question: What about the “Effect on activity and translocation of PKC” value (PKC [4]) of the same compound?
Answer: inhibit the activity and translocation of PKC

Question: And the CC50 at 24 h [1]?
Answer: 10 to 20 µM

Question: What about the Hemolysis (blood) of the same compound?
Answer: contrary to sphingosine, does not cause hemolysis

Question: For “monosialosyl-N-tetra-glycosylceramide [GM1]”, which “Interference with the glutamate bond at its high affinity recognition site” value [5] is on record?
Answer: do not interfere with the glutamate bond up to its high affinity recognition site

Question: What about the “Protection from glutamate-induced cell damage” value (granule cells) of the same compound?
Answer: offer protection from glutamate-induced cell damage

Question: And the “Effect on glutamate-induced translocation and activation of PKC” value (PKC [6])?
Answer: inhibits the translocation and activation of PKC induced by glutamate

Question: What about the “Interference with the [3H]-P(Bt02) bond” value ([3H]-P(Bt02) bond) of the same compound?
Answer: do not interfere with the glutamate bond up to its high affinity recognition site or with the [3H]-P(Bt02) bond

Question: With “trisialosyl-N-tetra-glycosylceramide [GT1b]” as the compound, how does the “Interference with the glutamate bond at its high affinity recognition site” value [5] read?
Answer: do not interfere with the glutamate bond up to its high affinity recognition site

Question: What about the “Protection from glutamate-induced cell damage” value (granule cells) of the same compound?
Answer: offer protection from glutamate-induced cell damage

Question: And the “Effect on glutamate-induced translocation and activation of PKC” value (PKC [6])?
Answer: inhibits the translocation and activation of PKC induced by glutamate

Question: What about the “Interference with the [3H]-P(Bt02) bond” value ([3H]-P(Bt02) bond) of the same compound?
Answer: do not interfere with the glutamate bond up to its high affinity recognition site or with the [3H]-P(Bt02) bond
